Assays:
Test in all cases: Eurofins kinase selectivity profile against 380 other human recombinant kinases (Table S2)
Type in all cases: biochemical
[1] = biological target: T1, 380 human recombinant protein kinases (Homo sapiens, UniProt O15111); details: IKKα(h), read-out: Inhibition rate
T1 construct: purchased Eurofins (Celle Lévescault)
T1 sequence (O15111 1-745): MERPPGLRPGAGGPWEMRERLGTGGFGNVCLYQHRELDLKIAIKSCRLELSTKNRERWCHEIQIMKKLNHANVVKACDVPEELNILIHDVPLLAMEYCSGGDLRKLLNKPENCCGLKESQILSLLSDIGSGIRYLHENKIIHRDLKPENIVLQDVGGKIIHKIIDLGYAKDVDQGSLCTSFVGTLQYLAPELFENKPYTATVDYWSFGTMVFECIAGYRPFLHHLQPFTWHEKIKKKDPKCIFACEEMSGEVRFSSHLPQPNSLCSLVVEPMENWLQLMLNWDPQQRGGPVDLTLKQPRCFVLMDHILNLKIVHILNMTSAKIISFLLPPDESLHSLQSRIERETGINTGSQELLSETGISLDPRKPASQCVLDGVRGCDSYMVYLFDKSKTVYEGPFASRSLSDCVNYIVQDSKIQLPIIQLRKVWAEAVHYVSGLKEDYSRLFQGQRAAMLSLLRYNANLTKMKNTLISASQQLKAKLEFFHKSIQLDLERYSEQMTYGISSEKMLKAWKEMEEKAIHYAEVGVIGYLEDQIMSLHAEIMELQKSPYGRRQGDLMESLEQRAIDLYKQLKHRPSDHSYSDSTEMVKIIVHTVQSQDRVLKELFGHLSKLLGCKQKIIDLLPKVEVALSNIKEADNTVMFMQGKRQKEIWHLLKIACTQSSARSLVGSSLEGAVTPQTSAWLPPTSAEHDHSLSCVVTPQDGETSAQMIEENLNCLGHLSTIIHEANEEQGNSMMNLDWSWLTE
Summary of the method: (§1)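 Commercial selectivity screen of the test compound against a panel of 380 human recombinant protein kinases, run by an outside contractor at several compound concentrations to check whether its potency was specific for MK2.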

[2] = biological target: T2, 380 human recombinant protein kinases (Homo sapiens, UniProt P30291); details: Wee1(h), read-out: Inhibition rate (%)
T2 construct: purchased Eurofins (Celle Lévescault)
Summary of the method: as §1

[3] = biological target: T3, 380 human recombinant protein kinases (Homo sapiens, UniProt P42684); details: Arg(h), read-out: Inhibition rate
T3 construct: purchased Eurofins (Celle Lévescault)
Summary of the method: as §1

[4] = biological target: T4, 380 human recombinant protein kinases (Homo sapiens, UniProt P48736); details: PI3 Kinase (p120γ)(h), read-out: Inhibition rate (%)
T4 construct: purchased Eurofins (Celle Lévescault)
T4 sequence (P48736 whole entry): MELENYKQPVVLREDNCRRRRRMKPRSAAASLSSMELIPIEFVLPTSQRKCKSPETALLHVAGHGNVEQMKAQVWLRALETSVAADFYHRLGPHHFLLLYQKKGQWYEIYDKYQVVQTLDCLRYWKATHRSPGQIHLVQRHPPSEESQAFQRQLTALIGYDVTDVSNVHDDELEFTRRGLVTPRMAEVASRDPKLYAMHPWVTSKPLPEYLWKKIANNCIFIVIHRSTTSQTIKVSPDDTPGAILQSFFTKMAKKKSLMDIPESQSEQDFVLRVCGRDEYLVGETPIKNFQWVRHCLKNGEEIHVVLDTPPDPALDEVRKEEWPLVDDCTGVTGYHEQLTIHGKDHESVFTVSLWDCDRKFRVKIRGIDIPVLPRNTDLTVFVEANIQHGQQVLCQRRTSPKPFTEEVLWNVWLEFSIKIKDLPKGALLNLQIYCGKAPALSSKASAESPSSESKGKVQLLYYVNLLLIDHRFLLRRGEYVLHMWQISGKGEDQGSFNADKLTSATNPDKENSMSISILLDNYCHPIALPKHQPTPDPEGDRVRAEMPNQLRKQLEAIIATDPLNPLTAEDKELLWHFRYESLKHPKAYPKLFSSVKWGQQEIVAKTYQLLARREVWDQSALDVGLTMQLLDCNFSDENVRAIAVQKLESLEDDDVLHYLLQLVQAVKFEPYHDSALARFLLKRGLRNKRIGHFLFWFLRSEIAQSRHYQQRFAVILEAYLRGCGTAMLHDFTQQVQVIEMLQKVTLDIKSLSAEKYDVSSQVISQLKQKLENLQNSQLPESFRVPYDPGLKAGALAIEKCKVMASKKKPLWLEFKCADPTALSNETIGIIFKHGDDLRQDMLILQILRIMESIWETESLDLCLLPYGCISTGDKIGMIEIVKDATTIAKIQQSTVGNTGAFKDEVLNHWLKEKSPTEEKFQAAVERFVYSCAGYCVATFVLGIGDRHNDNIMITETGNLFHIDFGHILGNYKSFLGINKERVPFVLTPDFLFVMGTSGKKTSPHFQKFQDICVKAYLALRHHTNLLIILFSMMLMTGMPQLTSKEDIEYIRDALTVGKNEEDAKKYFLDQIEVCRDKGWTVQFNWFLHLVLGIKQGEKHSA
Summary of the method: as §1

[5] = biological target: T5, 380 human recombinant protein kinases (Homo sapiens, UniProt P53355); details: DAPK1(h), read-out: Inhibition rate
T5 construct: purchased Eurofins (Celle Lévescault)
T5 sequence (P53355 whole entry): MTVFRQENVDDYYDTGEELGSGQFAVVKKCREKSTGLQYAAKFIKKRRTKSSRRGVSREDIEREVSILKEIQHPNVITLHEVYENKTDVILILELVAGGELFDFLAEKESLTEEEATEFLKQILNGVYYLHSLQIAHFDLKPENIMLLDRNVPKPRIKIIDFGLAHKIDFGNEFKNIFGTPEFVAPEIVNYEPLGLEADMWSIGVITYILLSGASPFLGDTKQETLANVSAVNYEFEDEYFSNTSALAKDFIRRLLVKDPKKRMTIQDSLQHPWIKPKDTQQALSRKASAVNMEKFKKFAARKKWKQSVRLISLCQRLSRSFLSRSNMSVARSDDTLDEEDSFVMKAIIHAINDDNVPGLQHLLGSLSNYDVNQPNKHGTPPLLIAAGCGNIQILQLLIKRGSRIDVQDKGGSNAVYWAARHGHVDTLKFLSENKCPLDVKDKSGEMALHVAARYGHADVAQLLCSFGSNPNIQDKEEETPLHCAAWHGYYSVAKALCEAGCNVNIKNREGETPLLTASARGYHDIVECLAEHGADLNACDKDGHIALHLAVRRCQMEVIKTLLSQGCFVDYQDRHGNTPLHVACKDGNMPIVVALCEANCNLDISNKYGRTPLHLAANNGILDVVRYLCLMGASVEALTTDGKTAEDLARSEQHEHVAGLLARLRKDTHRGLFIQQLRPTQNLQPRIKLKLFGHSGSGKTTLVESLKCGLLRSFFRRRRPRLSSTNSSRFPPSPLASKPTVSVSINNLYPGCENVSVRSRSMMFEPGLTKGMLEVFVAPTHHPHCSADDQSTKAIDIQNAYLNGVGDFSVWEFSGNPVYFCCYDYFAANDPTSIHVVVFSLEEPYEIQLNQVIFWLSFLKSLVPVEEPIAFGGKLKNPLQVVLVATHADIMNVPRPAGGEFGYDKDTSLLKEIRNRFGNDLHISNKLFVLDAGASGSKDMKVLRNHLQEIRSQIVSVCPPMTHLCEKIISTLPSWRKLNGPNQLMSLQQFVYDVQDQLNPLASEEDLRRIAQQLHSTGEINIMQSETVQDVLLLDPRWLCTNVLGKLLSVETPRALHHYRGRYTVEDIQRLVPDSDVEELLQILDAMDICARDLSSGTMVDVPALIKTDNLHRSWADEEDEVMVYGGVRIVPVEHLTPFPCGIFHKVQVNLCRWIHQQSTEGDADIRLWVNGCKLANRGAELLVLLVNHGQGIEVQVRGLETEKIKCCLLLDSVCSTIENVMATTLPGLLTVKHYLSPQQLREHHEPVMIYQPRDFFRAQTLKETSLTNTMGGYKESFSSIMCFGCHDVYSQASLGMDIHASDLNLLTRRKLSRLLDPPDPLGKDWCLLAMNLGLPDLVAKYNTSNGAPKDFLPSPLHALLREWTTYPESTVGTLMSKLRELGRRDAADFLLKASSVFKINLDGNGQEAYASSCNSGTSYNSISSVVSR
Summary of the method: as §1

[6] = biological target: T6, 380 human recombinant protein kinases (Homo sapiens, UniProt P80192); details: MLK1(h), read-out: Inhibition rate
T6 construct: purchased Eurofins (Celle Lévescault)
Summary of the method: as §1

[7] = biological target: T7, 380 human recombinant protein kinases (Homo sapiens, UniProt Q04759); details: PKCθ(h), read-out: Inhibition rate
T7 construct: purchased Eurofins (Celle Lévescault)
T7 sequence (Q04759 whole entry): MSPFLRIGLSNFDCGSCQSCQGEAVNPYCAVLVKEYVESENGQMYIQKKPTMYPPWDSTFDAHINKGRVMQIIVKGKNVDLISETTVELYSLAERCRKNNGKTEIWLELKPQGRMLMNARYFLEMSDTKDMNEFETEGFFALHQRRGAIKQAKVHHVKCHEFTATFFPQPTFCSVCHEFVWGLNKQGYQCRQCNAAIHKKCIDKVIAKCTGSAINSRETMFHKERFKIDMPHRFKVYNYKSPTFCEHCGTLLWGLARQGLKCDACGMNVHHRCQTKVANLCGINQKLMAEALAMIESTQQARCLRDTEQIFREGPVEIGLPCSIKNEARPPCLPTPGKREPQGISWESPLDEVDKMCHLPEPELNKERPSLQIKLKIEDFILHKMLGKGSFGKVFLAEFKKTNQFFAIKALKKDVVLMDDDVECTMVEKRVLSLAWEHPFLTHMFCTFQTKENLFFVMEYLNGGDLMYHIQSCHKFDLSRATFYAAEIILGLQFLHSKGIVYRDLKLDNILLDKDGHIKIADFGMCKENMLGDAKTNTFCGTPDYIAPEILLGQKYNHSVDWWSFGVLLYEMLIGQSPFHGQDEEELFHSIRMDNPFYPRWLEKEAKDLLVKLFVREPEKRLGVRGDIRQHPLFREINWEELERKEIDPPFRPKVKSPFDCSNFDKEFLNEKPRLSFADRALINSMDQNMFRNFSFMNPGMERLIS
Summary of the method: as §1

[8] = biological target: T8, 380 human recombinant protein kinases (Homo sapiens, UniProt Q96RG2); details: PASK(h), read-out: Inhibition rate
T8 construct: purchased Eurofins (Celle Lévescault)
T8 sequence (Q96RG2 whole entry): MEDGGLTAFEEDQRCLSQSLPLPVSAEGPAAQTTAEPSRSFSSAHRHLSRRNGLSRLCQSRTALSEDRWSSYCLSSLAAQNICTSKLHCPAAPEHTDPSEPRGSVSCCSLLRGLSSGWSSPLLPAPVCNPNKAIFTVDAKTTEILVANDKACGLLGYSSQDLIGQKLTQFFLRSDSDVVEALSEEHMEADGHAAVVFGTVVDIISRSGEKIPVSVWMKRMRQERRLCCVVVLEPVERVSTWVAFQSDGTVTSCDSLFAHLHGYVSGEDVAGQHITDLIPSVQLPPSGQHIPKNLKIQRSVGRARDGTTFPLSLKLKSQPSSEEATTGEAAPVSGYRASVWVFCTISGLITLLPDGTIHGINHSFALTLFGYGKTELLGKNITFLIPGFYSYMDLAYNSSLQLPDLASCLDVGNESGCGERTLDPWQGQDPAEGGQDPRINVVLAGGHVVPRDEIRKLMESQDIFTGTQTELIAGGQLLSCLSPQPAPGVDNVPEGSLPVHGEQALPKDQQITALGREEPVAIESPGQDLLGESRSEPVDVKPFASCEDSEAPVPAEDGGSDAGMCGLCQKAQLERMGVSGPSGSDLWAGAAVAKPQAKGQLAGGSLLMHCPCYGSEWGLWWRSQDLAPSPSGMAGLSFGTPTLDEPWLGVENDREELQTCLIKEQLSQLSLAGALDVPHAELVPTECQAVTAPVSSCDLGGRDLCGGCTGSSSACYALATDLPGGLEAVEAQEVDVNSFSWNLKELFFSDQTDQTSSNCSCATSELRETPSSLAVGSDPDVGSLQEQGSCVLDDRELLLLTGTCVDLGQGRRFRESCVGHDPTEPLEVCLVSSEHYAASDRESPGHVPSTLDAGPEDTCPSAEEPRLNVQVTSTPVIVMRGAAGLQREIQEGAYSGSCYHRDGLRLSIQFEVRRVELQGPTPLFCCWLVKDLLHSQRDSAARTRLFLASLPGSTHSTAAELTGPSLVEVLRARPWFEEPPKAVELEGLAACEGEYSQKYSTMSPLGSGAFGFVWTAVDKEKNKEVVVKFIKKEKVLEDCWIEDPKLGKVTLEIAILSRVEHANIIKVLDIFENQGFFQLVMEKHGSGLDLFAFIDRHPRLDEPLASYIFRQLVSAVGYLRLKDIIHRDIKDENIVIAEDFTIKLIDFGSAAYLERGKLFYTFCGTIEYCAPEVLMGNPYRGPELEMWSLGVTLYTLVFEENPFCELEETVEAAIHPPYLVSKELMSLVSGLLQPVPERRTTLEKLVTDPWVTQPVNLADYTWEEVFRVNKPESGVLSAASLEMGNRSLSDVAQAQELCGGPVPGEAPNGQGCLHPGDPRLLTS
Summary of the method: as §1

[9] = biological target: T9, 380 human recombinant protein kinases (Homo sapiens, UniProt Q9H093); details: NUAK2(h), read-out: Inhibition rate
T9 construct: purchased Eurofins (Celle Lévescault)
T9 sequence (Q9H093 1-628): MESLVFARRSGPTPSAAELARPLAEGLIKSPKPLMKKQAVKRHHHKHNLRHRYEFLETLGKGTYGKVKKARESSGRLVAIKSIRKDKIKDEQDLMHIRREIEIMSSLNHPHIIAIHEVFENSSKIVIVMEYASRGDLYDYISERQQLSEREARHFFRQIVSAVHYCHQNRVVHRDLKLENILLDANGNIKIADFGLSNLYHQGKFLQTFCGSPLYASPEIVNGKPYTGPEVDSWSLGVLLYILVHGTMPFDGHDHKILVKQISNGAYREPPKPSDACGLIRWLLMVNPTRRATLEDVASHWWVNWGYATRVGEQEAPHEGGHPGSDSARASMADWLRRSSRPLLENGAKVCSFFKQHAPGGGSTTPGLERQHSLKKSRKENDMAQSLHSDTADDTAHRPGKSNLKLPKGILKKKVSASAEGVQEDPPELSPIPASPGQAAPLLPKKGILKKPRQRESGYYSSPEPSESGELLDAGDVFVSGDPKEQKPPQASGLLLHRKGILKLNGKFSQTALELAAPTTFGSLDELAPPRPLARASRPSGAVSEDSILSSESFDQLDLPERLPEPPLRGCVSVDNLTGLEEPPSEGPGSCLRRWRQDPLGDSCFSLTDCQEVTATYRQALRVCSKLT
Summary of the method: as §1

[10] = biological target: T10, 380 human recombinant protein kinases (Homo sapiens, UniProt Q9HAZ1); details: CLK4(h), read-out: Inhibition rate
T10 construct: purchased Eurofins (Celle Lévescault)
T10 sequence (Q9HAZ1 whole entry): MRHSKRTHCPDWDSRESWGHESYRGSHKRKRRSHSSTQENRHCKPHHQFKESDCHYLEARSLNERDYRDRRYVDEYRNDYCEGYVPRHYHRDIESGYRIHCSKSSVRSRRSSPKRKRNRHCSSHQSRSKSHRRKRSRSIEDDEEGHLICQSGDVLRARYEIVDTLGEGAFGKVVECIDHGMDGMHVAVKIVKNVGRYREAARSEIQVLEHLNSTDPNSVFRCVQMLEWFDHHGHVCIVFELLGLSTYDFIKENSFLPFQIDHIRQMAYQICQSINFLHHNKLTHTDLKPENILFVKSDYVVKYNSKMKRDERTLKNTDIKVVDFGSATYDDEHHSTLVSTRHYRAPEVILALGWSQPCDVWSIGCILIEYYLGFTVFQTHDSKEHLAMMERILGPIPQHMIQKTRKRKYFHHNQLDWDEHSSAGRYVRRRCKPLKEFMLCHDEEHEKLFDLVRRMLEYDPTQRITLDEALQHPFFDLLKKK
Summary of the method: as §1

[11] = biological target: T11, 380 human recombinant protein kinases (Homo sapiens, UniProt Q9UQM7); details: CaMKIIα(h), read-out: Inhibition rate
T11 construct: purchased Eurofins (Celle Lévescault)
Summary of the method: as §1

In the case of `C=CC(=O)Nc1cc(-c2cc(-c3cc4c([nH]3)CCNC4=O)ccn2)ccc1OC(F)(F)F` [compound 11], the inhibition at 0.01 µM ([1]; 10 nM) is reported as -15%, the inhibition at 0.1 µM ([1]; 100 nM) is reported as -14% and the inhibition at 1 µM ([1]; 1000 nM) is reported as -5%. It also gave an inhibition at 0.01 µM ([2]; 10 nM) of -11%, an inhibition at 0.1 µM ([2]; 100 nM) of -11% and an inhibition at 1 µM ([2]; 1000 nM) of -4%. For the same compound, the inhibition at 0.01 µM ([3]; 10 nM) was 1%, the inhibition at 0.1 µM ([3]; 100 nM) was 2% and the inhibition at 1 µM ([3]; 1000 nM) was 6%. It also gave an inhibition at 0.01 µM ([4]; 10 nM) of 1%, an inhibition at 0.1 µM ([4]; 100 nM) of -1% and an inhibition at 1 µM ([4]; 1000 nM) of 3%. The inhibition at 0.01 µM ([5]; 10 nM) was 2%, the inhibition at 0.1 µM ([5]; 100 nM) was 5% and the inhibition at 1 µM ([5]; 1000 nM) was 12%. The inhibition at 0.01 µM ([6]; 10 nM) was -3%, the inhibition at 0.1 µM ([6]; 100 nM) was 0% and the inhibition at 1 µM ([6]; 1000 nM) was 10%. The inhibition at 0.01 µM ([7]; 10 nM) was 6%, the inhibition at 0.1 µM ([7]; 100 nM) was 0% and the inhibition at 1 µM ([7]; 1000 nM) was 4%. The inhibition at 0.01 µM ([8]; 10 nM) was 13%, the inhibition at 0.1 µM ([8]; 100 nM) was 4% and the inhibition at 1 µM ([8]; 1000 nM) was 12%. The inhibition at 0.01 µM ([9]; 10 nM) was -16%, the inhibition at 0.1 µM ([9]; 100 nM) was -8% and the inhibition at 1 µM ([9]; 1000 nM) was 8%. For the same compound, the inhibition at 0.01 µM ([10]; 10 nM) was -6%, the inhibition at 0.1 µM ([10]; 100 nM) was 25% and the inhibition at 1 µM ([10]; 1000 nM) was 76%. For the same compound, the inhibition at 0.01 µM ([11]; 10 nM) was -3%, the inhibition at 0.1 µM ([11]; 100 nM) was -4% and the inhibition at 1 µM ([11]; 1000 nM) was -2%.

From publication PMC11233931, “Remodeling tumor‐associated macrophage for anti‐cancer effects by rational design of irreversible inhibition of mitogen‐activated protein kinase‐activated protein kinase 2” (MedComm, 2024)
